According to ChEMBL document CHEMBL3286185, “Constituents of the roots of Clausena lansium and their potential anti-inflammatory activity” (J Nat Prod, 2014):

Columns and labels:
[1] = Antiinflammatory activity in human neutrophil assessed as inhibition of FMLP/CB-induced superoxide anion generation pretreated for 5 mins by spectrophotometry; assay type: functional, cell-based
[2] = Antiinflammatory activity in human neutrophil assessed as inhibition of FMLP/CB-induced elastase release for 5 mins; assay type: functional, cell-based

IC50 [1] | IC50 [2] | SMILES
3.5 µM | 6.9 µM | O=Cc1cc(O)c2[nH]c3ccccc3c2c1 [O-DEMETHYLMURRAYANINE]
3.5 µM | 3.9 µM | COc1cc(C=O)cc2c1[nH]c1ccccc12 [MURRAYANINE]
4.6 µM | > 10 µM | COc1ccc2[nH]c3cc(OC)c(C=O)cc3c2c1 [GLYCOZOLIDAL]
4.3 µM | > 10 µM | COC(=O)c1ccc2[nH]c3ccccc3c2c1

Second part, the molecule before the results:

SMILES | IC50 [1] | IC50 [2]
CC1=C[C@H](C/C(C)=C\COc2c3occc3cc3ccc(=O)oc23)OC1=O | 6.1 µM | > 10 µM
CC(C)=CCc1c(O)ccc2ccc(=O)oc12 [OSTHENOL] | 2.6 µM | > 10 µM
CC(C)=CCOc1c2occc2cc2ccc(=O)oc12 [PENTOSALEN] | 3.5 µM | > 10 µM
CC(C)=CCc1c(C=O)cc(O)c2[nH]c3ccccc3c12 | > 10 µM | 2 µM
O=c1cc(N2CCOCC2)oc2c(-c3ccccc3)cccc12 [LY-294002] | 1 µM | 1.5 µM
CC(C)=CCC/C(C)=C/COc1c2occc2cc2ccc(=O)oc12 | 1.9 µM | > 10 µM
C/C(=C\COc1c2occc2cc2ccc(=O)oc12)C[C@H]1C[C@H](C)C(=O)O1 | 8.4 µM | > 10 µM
CC(C)=CCOc1c2ccoc2cc2oc(=O)ccc12 [ISOIMPERATORIN] | 4.2 µM | > 10 µM
